Data: ChEMBL document CHEMBL1201862, “PubChem BioAssay data set” (2004)
Activity calls are given as the source filed them.

Legend:
[1] = molecular target: T1, High affinity choline transporter 1 (Homo sapiens, UniProt Q9GZV3); assay: human choline transporter blockers, potency – cell-based, 5-point CRC, membrane potential dye, dose response (AID 504840); type: functional
T1 sequence (Q9GZV3 whole entry): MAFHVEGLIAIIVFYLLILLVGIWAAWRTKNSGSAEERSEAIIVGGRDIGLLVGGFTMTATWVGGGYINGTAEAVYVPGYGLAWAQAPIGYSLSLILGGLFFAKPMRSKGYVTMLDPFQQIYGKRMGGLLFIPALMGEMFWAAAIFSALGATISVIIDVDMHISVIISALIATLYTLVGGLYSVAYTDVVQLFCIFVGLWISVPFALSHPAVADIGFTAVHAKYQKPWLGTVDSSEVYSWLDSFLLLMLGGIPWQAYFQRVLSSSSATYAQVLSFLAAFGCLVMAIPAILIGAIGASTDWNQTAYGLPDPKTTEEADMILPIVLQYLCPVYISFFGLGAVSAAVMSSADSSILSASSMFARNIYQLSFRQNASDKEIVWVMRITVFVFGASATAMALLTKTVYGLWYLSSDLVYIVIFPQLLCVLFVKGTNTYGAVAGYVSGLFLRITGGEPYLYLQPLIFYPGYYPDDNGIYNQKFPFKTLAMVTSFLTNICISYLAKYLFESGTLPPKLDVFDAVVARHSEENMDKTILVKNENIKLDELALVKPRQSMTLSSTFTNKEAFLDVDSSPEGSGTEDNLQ

HEK293 [2] = assay: inhibition of NOD1-driven NF-kB reporter – cell-based, luminescence, uHTS, primary screen (AID 1578); type: functional; details: Homo sapiens
HEK293 [3] = assay: cells; type: functional, cell-based; details: Homo sapiens
HEK293 [4] = assay: cells; type: functional, cell-based; details: Homo sapiens; remark: listed apart in the source
HEK293 [5] = assay: NOD2 signaling inhibitors in MDP-stimulated cells, cell-based, uHTS, luminescence (AID 2001); type: functional; details: Homo sapiens
Aminopeptidase N = molecular target: T2, Aminopeptidase N (Plasmodium falciparum FcB1/Columbia, UniProt O96935); assay: malaria alanyl aminopeptidase activity blockers – biochemical, fluorogenic H-Leu-NHMec substrate, 1536-well (AID 1445); parameters: species or system Plasmodium falciparum 3D7, 3D7
T2 sequence (O96935 whole entry): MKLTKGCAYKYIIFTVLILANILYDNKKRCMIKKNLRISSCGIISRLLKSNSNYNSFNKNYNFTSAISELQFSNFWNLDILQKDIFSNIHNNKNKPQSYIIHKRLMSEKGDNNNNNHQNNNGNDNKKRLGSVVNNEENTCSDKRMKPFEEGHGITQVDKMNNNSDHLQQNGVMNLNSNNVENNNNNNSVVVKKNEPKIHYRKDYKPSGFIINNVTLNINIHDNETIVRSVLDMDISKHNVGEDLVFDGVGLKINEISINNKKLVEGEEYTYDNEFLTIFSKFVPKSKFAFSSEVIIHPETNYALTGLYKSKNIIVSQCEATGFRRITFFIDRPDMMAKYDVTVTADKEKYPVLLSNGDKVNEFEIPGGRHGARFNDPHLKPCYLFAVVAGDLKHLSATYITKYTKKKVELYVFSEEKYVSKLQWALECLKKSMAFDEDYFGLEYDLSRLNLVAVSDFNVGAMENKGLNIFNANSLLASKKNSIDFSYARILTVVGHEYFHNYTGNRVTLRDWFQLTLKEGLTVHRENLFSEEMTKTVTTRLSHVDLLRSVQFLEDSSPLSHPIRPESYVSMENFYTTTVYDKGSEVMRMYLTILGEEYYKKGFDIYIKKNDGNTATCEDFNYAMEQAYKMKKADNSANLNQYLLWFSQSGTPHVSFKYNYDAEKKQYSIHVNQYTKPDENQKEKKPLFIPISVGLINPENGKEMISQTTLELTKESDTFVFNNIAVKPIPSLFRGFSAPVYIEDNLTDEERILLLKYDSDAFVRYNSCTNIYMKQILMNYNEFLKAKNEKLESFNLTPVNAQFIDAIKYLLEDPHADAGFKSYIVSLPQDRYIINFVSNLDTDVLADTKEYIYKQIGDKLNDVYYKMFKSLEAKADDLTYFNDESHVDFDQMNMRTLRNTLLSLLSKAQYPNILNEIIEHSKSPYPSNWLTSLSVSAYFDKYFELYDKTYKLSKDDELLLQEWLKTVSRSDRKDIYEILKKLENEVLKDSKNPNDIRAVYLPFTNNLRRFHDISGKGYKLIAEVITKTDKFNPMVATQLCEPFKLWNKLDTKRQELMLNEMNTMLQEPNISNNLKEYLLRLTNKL

SUMO-activating enzyme [6] = molecular target: T3, SUMO-activating enzyme (Homo sapiens, UniProt Q9UBT2); assay: blockers of UBC9-mediated SUMO conjugation – biochemical, AlphaScreen, SUMOylation inhibitor project, confirmation (AID 2018); type: functional
T3 sequence (Q9UBE0 whole entry): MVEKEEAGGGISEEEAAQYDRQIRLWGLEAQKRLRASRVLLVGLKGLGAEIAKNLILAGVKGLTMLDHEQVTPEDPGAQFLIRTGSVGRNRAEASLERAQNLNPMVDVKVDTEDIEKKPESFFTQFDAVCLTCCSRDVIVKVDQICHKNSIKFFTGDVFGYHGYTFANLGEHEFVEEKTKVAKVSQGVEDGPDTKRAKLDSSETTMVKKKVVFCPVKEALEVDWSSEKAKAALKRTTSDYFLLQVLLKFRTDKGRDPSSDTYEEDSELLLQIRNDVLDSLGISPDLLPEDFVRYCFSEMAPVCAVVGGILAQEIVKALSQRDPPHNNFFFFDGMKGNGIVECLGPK
T3 sequence (Q9UBT2 whole entry): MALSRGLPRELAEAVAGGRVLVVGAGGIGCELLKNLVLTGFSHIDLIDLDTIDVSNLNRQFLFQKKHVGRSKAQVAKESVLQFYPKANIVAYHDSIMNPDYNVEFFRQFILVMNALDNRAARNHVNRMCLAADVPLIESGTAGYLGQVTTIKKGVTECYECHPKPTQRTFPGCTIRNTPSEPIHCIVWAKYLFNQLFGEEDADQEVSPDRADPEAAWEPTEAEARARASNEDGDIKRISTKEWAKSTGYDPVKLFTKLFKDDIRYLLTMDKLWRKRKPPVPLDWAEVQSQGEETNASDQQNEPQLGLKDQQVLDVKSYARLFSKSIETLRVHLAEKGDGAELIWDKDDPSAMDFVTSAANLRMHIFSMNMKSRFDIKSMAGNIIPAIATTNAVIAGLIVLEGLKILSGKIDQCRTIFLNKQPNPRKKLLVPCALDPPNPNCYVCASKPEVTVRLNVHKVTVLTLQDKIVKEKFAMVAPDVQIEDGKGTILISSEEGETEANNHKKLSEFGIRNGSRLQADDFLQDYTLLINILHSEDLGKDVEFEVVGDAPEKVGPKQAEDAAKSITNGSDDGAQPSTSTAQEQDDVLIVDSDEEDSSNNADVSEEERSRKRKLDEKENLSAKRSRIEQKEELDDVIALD

SUMO-activating enzyme [7] = molecular target: T3, SUMO-activating enzyme; assay: blockers of SAE1/SAE2–UBC9 SUMO transfer – biochemical, HTRF, uHTS, primary screen (AID 2006); type: protein-complex assay
Cysteine protease ATG4B = molecular target: T4, Cysteine protease ATG4B (Homo sapiens, UniProt Q9Y4P1); type: functional;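 further: Fluorescence-based dose-response confirmation assay measuring inhibition of ATG4B activity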
T4 sequence (Q9Y4P1 whole entry): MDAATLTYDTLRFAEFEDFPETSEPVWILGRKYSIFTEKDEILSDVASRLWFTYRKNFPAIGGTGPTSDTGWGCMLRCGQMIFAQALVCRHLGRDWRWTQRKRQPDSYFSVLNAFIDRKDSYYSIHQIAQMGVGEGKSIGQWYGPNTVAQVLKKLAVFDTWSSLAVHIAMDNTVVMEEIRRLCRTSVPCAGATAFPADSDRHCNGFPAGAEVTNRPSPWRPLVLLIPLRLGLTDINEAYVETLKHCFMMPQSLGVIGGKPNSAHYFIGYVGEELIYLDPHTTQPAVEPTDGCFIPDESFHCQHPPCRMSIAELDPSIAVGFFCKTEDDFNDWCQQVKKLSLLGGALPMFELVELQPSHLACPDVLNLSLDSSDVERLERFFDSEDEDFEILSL

Phospholipase A2 = Phospholipase A2 (Homo sapiens, UniProt P04054); type: functional;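 further: confirmatory dose-response counterscreen on phospholipase A2, testing hits that came from an ultra-high-throughput screen for ATG4B inhibitors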
Sequence of Phospholipase A2 (P04054 whole entry): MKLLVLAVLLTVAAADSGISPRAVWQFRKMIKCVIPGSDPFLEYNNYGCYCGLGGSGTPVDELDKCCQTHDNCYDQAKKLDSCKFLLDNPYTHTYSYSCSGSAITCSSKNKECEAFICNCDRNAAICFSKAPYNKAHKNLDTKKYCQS

[8] = NIH-3T3 fibroblast cytotoxicity, dose response, cytotoxicity control, cell-based, fluorescence, Alamar Blue, secondary assay (AID 2327); type: functional;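 further: NIH-3T3 mouse fibroblasts cultured with fluconazole at 8 µg/mL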
[9] = Luminescence Cell-Based Dose Confirmation HTS to Identify Activators of 5'UTR Stem-Loop Driven Alpha-Synuclein mRNA Translation in H4 Neuroglioblastoma Cells. [Related pubchem assays: 1829 (Project Summary), 1814 (Primary HTS)]; type: functional
[10] = Luminescence Cell-Based Dose Response HTS to Identify Activators of Luciferase Translation or Activity in H4 […] Cells. [Related pubchem assays: 1829 (Project Summary), 1814 (Primary HTS)]; type: functional
H4 = assay: Luminescence Cell-Based Dose Response HTS to Identify Activators of 5'UTR Stem-Loop Driven Prion Protein mRNA Translation in H4 Neuroglioblastoma Cells. [Related pubchem assays: 1829 (Project Summary), 1814 (Primary HTS)]; type: functional; details: Homo sapiens
[11] = fluconazole-exposed Candida albicans growth modulators – fluorescence, retest, confirmation (AID 2467); type: functional, cell-based
[12] = THP-1 cell cytotoxicity, dose response, cytotoxicity control for non-replicating M. tuberculosis project (AID 489025); type: functional
[13] = HepG2 cell cytotoxicity, dose response, cytotoxicity control for non-replicating M. tuberculosis project (AID 489018); type: functional; details: Mycobacterium tuberculosis
[14] = Vero E6 cell cytotoxicity, dose response, cytotoxicity control for non-replicating M. tuberculosis project, secondary assay (AID 492998); type: functional, VeroE6; details: Vero C1008
cells = type: functional
Vero = assay: cells; type: functional; details: Chlorocebus sabaeus
[15] = molecular target: T5, Carboxy-terminal domain RNA polymerase II polypeptide A small phosphatase 1 (Homo sapiens, UniProt Q9GZU7); assay: CTDSP1 inhibitors, concentration-response, biochemical, absorbance readout, ultra-high-throughput screen actives (AID 540297); type: functional
T5 sequence (Q9GZU7 whole entry): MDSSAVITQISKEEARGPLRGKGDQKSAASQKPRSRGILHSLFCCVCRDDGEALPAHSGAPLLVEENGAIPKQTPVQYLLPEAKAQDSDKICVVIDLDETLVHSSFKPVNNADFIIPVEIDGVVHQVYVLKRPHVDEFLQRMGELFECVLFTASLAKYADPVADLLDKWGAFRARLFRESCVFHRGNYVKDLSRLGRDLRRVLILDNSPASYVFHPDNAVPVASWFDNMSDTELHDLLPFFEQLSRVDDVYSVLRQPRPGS

[16] = molecular target: 26S proteasome non-ATPase regulatory subunit 14 (Homo sapiens, UniProt O00487); assay: inhibition of proteasome subunit RPN11 – biochemical, fluorescence polarization, uHTS hits, confirmation (AID 602368); type: functional
Sequence of 26S proteasome non-ATPase regulatory subunit 14 (O00487 whole entry): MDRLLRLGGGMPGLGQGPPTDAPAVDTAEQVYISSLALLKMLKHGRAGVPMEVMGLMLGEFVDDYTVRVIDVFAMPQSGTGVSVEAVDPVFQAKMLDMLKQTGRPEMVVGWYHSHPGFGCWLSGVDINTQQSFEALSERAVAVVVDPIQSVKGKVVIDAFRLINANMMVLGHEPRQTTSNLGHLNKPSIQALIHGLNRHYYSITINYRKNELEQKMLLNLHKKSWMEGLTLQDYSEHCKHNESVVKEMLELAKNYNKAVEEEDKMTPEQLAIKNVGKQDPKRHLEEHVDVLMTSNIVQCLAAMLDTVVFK

[17] = molecular target: 72 kDa type IV collagenase (Homo sapiens, UniProt P08253); assay: Dose Response validation of uHTS RPN11 inhibitor hits using a MMP-2 Fluorescence assay.; type: functional
Sequence of 72 kDa type IV collagenase (P08253 whole entry): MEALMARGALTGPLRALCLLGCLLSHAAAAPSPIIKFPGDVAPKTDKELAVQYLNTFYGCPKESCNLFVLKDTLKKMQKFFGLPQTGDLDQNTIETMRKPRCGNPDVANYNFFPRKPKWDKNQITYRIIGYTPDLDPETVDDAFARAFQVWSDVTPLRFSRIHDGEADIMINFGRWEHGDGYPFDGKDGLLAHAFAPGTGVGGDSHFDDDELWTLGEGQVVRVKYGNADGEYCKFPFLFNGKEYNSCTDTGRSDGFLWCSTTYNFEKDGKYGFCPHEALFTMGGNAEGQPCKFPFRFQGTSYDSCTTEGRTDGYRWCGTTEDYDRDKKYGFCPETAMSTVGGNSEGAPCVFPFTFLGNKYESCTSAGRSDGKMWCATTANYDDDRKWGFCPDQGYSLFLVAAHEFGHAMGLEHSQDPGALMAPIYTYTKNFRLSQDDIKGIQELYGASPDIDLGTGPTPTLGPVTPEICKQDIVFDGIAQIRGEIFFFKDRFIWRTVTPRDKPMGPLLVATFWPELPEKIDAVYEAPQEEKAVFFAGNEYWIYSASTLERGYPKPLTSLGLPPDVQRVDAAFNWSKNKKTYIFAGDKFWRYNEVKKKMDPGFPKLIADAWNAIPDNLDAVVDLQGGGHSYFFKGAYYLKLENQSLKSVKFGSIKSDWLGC

Prothrombin = Prothrombin (Bos taurus, UniProt P00735); assay: thrombin protease inhibitors – biochemical, fluorescence polarization, uHTS hits, dose response (AID 602369); type: functional
[18] = test system: Streptococcus sp. 'group A'; assay: Streptococcus pyogenes SK(-)GAS viability under kanamycin – luminescence, BacTiterGlo, confirmation, counter-screen for streptokinase expression inhibitor project, dose response (AID 1900); type: functional, organism-based
Streptococcus = assay: GAS UMAA2166 growth inhibition – luminescence, BacTiterGlo, counter-screen for streptokinase expression inhibitor project, dose response (AID 1915); type: functional, organism-based;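 further: potency for reduction of bacterial viability or growth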
[19] = HEK-293T viability loss after treatment – luminescence, T-cell screen hits, cytotoxicity control for TCR NF-kB inhibitor project, dose response (AID 489026); type: functional, cell-based;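 further: cells exposed to compound about 14 hours before the viability readout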
[20] = molecular target: T6, Microphthalmia-associated transcription factor (Homo sapiens, UniProt O75030); assay: reducers of TRPM1 reporter luminescence, concentration series – cell-based, SK-MEL-5, cherry-picked, set 3, MITF inhibitor project, dose response (AID 493073); type: functional;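 further: SK-MEL-5 melanoma cells with luciferase driven by the MITF target TRPM1 promoter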
T6 sequence (O75030 whole entry): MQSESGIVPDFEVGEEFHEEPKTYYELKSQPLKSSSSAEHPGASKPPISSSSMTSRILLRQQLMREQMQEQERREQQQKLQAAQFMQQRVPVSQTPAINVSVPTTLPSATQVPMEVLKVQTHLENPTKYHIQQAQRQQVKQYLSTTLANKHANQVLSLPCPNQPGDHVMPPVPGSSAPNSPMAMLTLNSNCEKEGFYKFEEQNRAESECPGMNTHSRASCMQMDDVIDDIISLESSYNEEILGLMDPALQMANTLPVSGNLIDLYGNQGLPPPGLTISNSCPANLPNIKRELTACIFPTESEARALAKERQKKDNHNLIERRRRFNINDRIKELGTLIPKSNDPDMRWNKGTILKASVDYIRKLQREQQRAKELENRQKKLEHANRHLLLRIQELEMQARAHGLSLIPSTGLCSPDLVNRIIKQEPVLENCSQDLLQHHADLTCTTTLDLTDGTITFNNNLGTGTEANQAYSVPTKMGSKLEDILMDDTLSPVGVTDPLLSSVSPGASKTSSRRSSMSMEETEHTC

A-375 = assay: MITF: Counter assay: A375 proliferation Measured in Cell-Based System Using Plate Reader - 2084-03_Inhibitor_Dose_DryPowder_Activity. [Related pubchem assays (depositor defined):AID488944]; type: functional; details: Homo sapiens
INS1 = assay: INS-1E survival protection against cytokine death – cell-based, luminescence, retest, dose response (AID 449756); type: functional; details: Rattus norvegicus;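 further: cell death triggered by IL-1 beta plus TNF-alpha plus IFN-gamma mixture; protective hits raise ATP signal compared with cytokine alone wells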

Cc1nn(-c2ccccc2)nc1C(=O)Nc1nnc(C(F)(F)F)s1
IC50 [1]: 17.4 µM (active)

COc1cc2ncnc(NCCc3ccccc3)c2cc1OC
EC50 (HEK293 [2]): 19 µM (active)
IC50 (HEK293 [3]): > 20 µM (inactive)
IC50 (HEK293 [4]): > 20 µM (inactive)
IC50 (HEK293 [5]): 19.3 µM (inactive)

COc1cccc(-c2nc(SCC(=O)Nc3nc(-c4ccccc4)c(C)s3)[nH]c(=O)c2C#N)c1
IC50 (Aminopeptidase N): 21.2 µM (active)
IC50 (SUMO-activating enzyme [6]): 5.37 µM (active)
IC50 (SUMO-activating enzyme [7]): 15.2 µM (active)
IC50 (Cysteine protease ATG4B): 14.9 µM (active)
IC50 (Phospholipase A2): 15 µM (active)

O=C(Nc1cccc2ccccc12)c1ccc([N+](=O)[O-])o1
EC50 [8]: > 150 µM (inactive)
EC50 [9]: > 120 µM (not active)
EC50 [10]: > 120 µM (not active)
EC50 (H4): > 120 µM (not active)
EC50 [11]: 1.51 µM (active)
CC50 [12]: 12.7 µM (active)
CC50 [13]: 15.1 µM (active)
CC50 [14]: 6.37 µM (active)
IC50 (cells): 5.22 µM (active)
CC50 (Vero): 17.8 µM (active)

COc1cc(OC)c2ccc(=O)oc2c1C(CC(=O)N1CCCC(C)C1)c1ccc2c(c1)OCO2 (centres undefined)
IC50 [15]: 14.3 µM (active)

O=C(CSc1nc2c(sc3ccccc32)c(=O)n1CCO)NCc1ccco1
IC50 [15]: 8.39 µM (active)

O=C(N/N=C/c1ccccc1F)c1cc2c(ccc3ccccc32)o1
IC50 [15]: 4.45 µM (active)
IC50 [16]: 18.2 µM (active)
IC50 [17]: > 100 µM (inactive)
IC50 (Prothrombin): 77.5 µM (active)

Oc1c(Br)cc(Br)cc1/C=N/c1nc2c(s1)CCCC2
EC50 [18]: 7.39 µM (active)
EC50 (Streptococcus): 7.68 µM (active)
IC50 [1]: 13.2 µM (active)

O=C(O/N=C(/c1ccccc1)c1ccncc1)c1ccccc1[N+](=O)[O-]
IC50 [1]: 13.2 µM (active)

COc1ccc(C(=O)/C(C#N)=N/Nc2ccc([N+](=O)[O-])cc2)cc1
IC50 [19]: > 80 µM (inactive)
AC50 [20]: 8.26 µM (active)
AC50 (A-375): 28.8 µM (active)
AC50 (INS1): 1.9 µM (active)
